Results on 13 molecules are retold here after patent US8288374B2, “Medicinal composition containing benzo[a]phenoxazine compound as the active ingredient for prevention or treatment of protozoal disease” (Hoshi University, priority 2008, dated 2012).

Counter-ions that a name gives are not always drawn. Like-named read-outs stand apart in the source and are kept apart here. A value given as a limit tells only on which side of the number the result lay.

Usually melting point stands for the temperature, or range, at which the solid turns liquid.

Data set [1] concerns Plasmodium berghei NK65 strain. In words: Cure test by oral administration to mice infected with malaria. The format is in vivo. The conditions noted are these: for inhibition in vivo at 100 mg/kg: Plasmodium berghei; for Effectiveness in the in vivo malaria test, in words: oral administration to mice infected with rodent malaria; for Days of survival: mean days to death minus that of control mice. The method, then: In this experiment, rodent malaria parasites (the Plasmodium berghei NK65 strain) were used.
The infected blood to be used was subcultured in ICR female SPF mice infected by intraperitoneal or tail vein administration at 4 to 6 weeks old (20 to 26 g). […] Thereafter, based on the number of red cells (cells/ml) and the rate of infection by the protozoans, the blood was diluted with phys'iological saline such that a density of […] malaria parasites/1 ml dose was attained. This was used for infection of uninfected mice (ICR female mice, 5 weeks old) in an amount of 0.2 ml/20 g body weight, through the tail vein (Day-0). The compound used in the test was dissolved in 10% DMSO solution (a mixture of 1 ml of DMSO and 9 ml of 5% glucose solution).
Each group contained 4 mice, and the compound was orally administered to the mice 24 hours after their infection with malaria (Day-1), in an amount calculated such that 100 mg of the compound was administered per 1 kg of the body weight of a mouse. On the other hand, in terms of cases in which the amount was calculated such that 30 mg of the compound was administered per 1 kg of the body weight of a mouse, the oral administration was carried out a total of three times, that is, 24 hours (Day-1), 48 hours (Day-2) and 72 hours (Day-3) after the infection of malaria.
Blood was collected from the tails of each mouse 96 hours (Day-4) and 144 hours (Day-6) after the infection with malaria, and thin blood films were prepared. Under the microscope, the numbers of infection of malaria parasites in the group to which the compound was administered and the control group (to which the compound was not administered) were measured, and the rates of infection with malaria parasites (Parasitemia) were calculated.
From the rate of infection with malaria parasites calculated as above, the cure rate (Suppression) in the case of administration of the drug was calculated according to the following equation. Cure rate: Suppression (%)=(B−A)/B×100
A: Rate of infection with the protozoans in a mouse to which the present test compound was administered
B: Rate of infection with the parasites in a control mouse (to which the compound was not administered) Days of survival: MSD (day)=C−D
C: the average number of days from the date of infection with malaria to the date of death in the mice to which the present test compound was administered
D: The average number of days from the date of infection with malaria to the date of death in the 4 individuals of control mice (to which the compound was not administered)
Further, by observation of changes in the body weight, hair glossiness and the like of each mouse, side effects such as acute toxicity due to administration of the compound were evaluated.

[2] abbreviates: po, 96 h, read-out: Cure rate (%) Day-4.
Where [3] appears, read: po, 144 h, read-out: Cure rate (%) Day-6.
[4] abbreviates: 96 h, oral, 100 mg/kg, 1 dose, infected ICR mice, suppression vs control, read-out: Cure rate (%) Day-4.
[5] abbreviates: 144 h, oral, 100 mg/kg, 1 dose, infected ICR mice, suppression vs control, read-out: Cure rate (%) Day-6.

As to `CCCN(CCC)c1ccc2nc3c4ccccc4c(=Nc4ccncc4)cc-3oc2c1` [Compound 1D, N,N-Dipropyl-5-(pyridin-4-ylimino)-5H-benzo[a]phenoxazin-9-amine], the melting point is 215 to 216 °C.

Molecule `CCN(CC)c1ccc2nc3c4ccc(Br)cc4c(=Nc4ccccn4)cc-3oc2c1` [Compound 1F, 3-Bromo-N,N-diethyl-5-(pyridin-2-ylimino)-5H-benzo[a]phenoxazin-9-amine] had a melting point of 204 to 205 °C.

`CCCCN(CCCC)c1ccc2nc3c4ccccc4c(=Nc4ccncc4)cc-3oc2c1` [Compound 1E, N,N-Dibutyl-5-(pyridin-4-ylimino)-5H-benzo[a]phenoxazin-9-amine] gave a melting point of 188 to 189 °C.

`CCN(CC)c1cc(C)c2c(c1)OC1=CC(Nc3ccccn3)c3ccccc3C1=N2` (stereo not shown) (as salt: HCl) [Compound 1a, N,N-Diethyl-11-methyl-5-(pyridin-2-ylamino)-5H-benzo[a]phenoxazin-9-amine] displayed a melting point of 167.2 to 168.4 °C.

In the case of `c1ccc2c(=Nc3ccncc3)cc3oc4cc(N5CCCCC5)ccc4nc-3c2c1` [Compound 1f, 9-(Piperidin-1-yl)-5-(pyridin-4-ylimino)-5H-benzo[a]phenoxazine], the melting point was 266.8 to 268.2 °C.

For `CCN(CC)c1cc(C)c2c(c1)OC1=CC(Nc3ccncc3)c3ccccc3C1=N2` (stereo not shown) (as salt: HCl) [Compound 1c, N,N-Diethyl-11-methyl-5-(pyridin-4-ylamino)-5H-benzo[a]phenoxazin-9-amine], the melting point was greater than 300 °C.

As to `CCN(CC)c1cc(C)c2c(c1)OC1=CC(Nc3cccnc3)c3ccccc3C1=N2` (stereo not shown) (as salt: HCl) [Compound 1b, N,N-Diethyl-11methyl-5-(pyridin-3-ylamino)-5H-benzo[a]phenoxazin-9-amine], the melting point is 161.6 to 163.1 °C.

As for `CCN(CC)c1ccc2nc3c4ccccc4/c(=N\c4ccc(C)cc4)cc-3oc2c1` [Compound 1V, reference compound], the inhibition in vivo at 100 mg/kg in data set [1] (setting [2]) came to 0%; in data set [1] (setting [3]), 11.4%. Also, in data set [1], the “Effectiveness in the in vivo malaria test, in words” value (from here on “Effectiveness”) is “effectiveness was hardly observed”. The “Days of survival” value in data set [1] (oral, 100 mg/kg, 1 dose) was 0.8 days.

In the case of `CCN(CC)c1ccc2nc3c(cc(N)c4ccccc43)[o+]c2c1` [Nile blue A, reference compound], the inhibition in vivo at 100 mg/kg in data set [1] (setting [4]) worked out at 15%; in data set [1] (setting [5]), 5%. In addition, the “Effectiveness” value in data set [1] is listed as “did not show effectiveness”. Moreover, in data set [1] (oral, 100 mg/kg, 1 dose), the “Days of survival” value came out at 0.3 days.

With `c1ccc2c(=Nc3ccncc3)cc3oc4cc(N5CCOCC5)ccc4nc-3c2c1` [Compound 1e, 9-Morpholino-5-(pyridin-4-ylimino)-5H-benzo[a]phenoxazine], the melting point is greater than 300 °C.

With `CCN(CC)c1ccc2nc3c4ccccc4c(=O)cc-3oc2c1` [Nile red, reference compound], the values for the inhibition in vivo at 100 mg/kg in data set [1] (setting [4]) and in data set [1] (setting [5]) were 16% and 3%, respectively. The “Effectiveness” value in data set [1] is recorded as “did not show effectiveness”. Moreover, in data set [1] (oral, 100 mg/kg, 1 dose), the “Days of survival” value stood at 0 days.

As for `CCN(CC)c1ccc2nc3c4ccccc4/c(=N\c4ccccc4)cc-3oc2c1` [Compound 1U, reference compound], the inhibition in vivo at 100 mg/kg came out at 0% in data set [1] (setting [2]) and 16.8% in data set [1] (setting [3]). Further, the “Effectiveness” value in data set [1] is listed as “effectiveness was hardly observed”. In addition, the “Days of survival” value in data set [1] (oral, 100 mg/kg, 1 dose) is on record as 0.8 days.

Regarding `CCNc1cc2[o+]c3cc(NCC)c4ccccc4c3nc2cc1C` [Oxazin 170 perchlorate, reference compound], the inhibition in vivo at 100 mg/kg in data set [1] (setting [4]) worked out at 40%; in data set [1] (setting [5]) it was 57%. In data set [1], the “Effectiveness” value is recorded as “did not show effectiveness”. The “Days of survival” value in data set [1] (oral, 100 mg/kg, 1 dose) was 1.3 days.
